The conditions of series [1]: cited from earlier work.
Series [2] in a line: Pharmacokinetic study in healthy adults of single vs. multiple oral doses of colchicine tablets (Example 1).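 On all read-outs here: each subject received both dosing periods, single and repeated oral dosing, with a 14-day washout interval between periods.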 Conditions: for concentration at 25 day: 0.6 mg. The format is in vivo, human.
Protocol: Subjects received a light breakfast served 60 minutes following dose administration in the morning and the evening dose was administered 90 minutes after an evening meal on Days 15 through 24 only. […] Study periods were separated by a 14-day washout. Following the single dose and the last dose of the multiple dose regimen (beginning on the mornings of Day 1 and Day 25, respectively), blood samples were collected (6 mL each) from each subject within 1 hour prior to dosing and after dose administration at study hours 0.5, 1, 1.5, 2, 3, 4, 6, 8, 10, 12, and 24 (while confined) and 36, 48, 72, and 96 (on an outpatient basis).
Series [3] concerns CYP2C9/19. Particulars: Dvorak 2000, preliminary; 1 and 10 μM colchicine; cited from earlier work.
Series [4] is described as follows: clinical. Conditions: human, in vivo, 0.6 mg.
Protocol: A single-center, open-label, one sequence, two-period study was carried out in 23 healthy subjects. […] After completing a 21-day washout period, all subjects received 250 mg of clarithromycin administered twice daily for 7 days (Days 22 through 29), a sufficient dose and duration to inhibit CYP3A4 and Pgp.
For series [5] the following is noted: colchicine 0.6 mg twice a day, two randomized clinical trials, patients initiating urate lowering therapy; cited from earlier work.
A short description of series [6]: Colchicine elimination half-life after multiple oral doses in young healthy volunteers. The format is in vivo. Conditions: human, plasma; multiple oral doses 0.6 mg twice daily, young healthy volunteers (mean age 25 to 28 years).
The conditions of series [7]: colchicine administration; cited from earlier work.
The mark [8] stands for this setting: mean, multiple (b.i.d.) oral doses 0.6 mg x 10 days, Day 25, healthy adults N=13.
Where [9] appears, read: mean, single oral dose 0.6 mg, healthy adults N=13.
Setting [10] is: median, multiple (b.i.d.) oral doses 0.6 mg x 10 days, Day 25, healthy adults N=13.
Setting [11] is: median, single oral dose 0.6 mg, healthy adults N=13.
Setting [12] is: co-administration of clarithromycin vs colchicine alone.
Setting [13] is: colchicine 0.6 mg with steady-state clarithromycin vs colchicine alone.
The mark [14] stands for this setting: mean, Day 1, single-dose colchicine 0.6 mg alone, healthy adults n=23.

Consider 4 compounds from patent US8093296B2 (Mutual Pharmaceutical Company, Inc., priority 2008, dated 2012).

Entries after “also recorded” stand apart in the source; their conditions may differ. Read-outs that look alike come from different tables or passages of the source.

Take `CC[C@H]1OC(=O)[C@H](C)[C@@H](O[C@H]2C[C@@](C)(OC)[C@@H](O)[C@H](C)O2)[C@H](C)[C@@H](O[C@@H]2O[C@H](C)C[C@H](N(C)C)[C@H]2O)[C@](C)(OC)C[C@@H](C)C(=O)[C@H](C)[C@@H](O)[C@]1(C)O` [Clarithromycin]: the “oral dose excreted in feces” value in series [1] (in vivo, po) was “About 40%”. The entries for the “dose excreted as unchanged drug in urine” value in series [1] (oral 250 mg every 12 hours) and in series [1] (oral 500 mg every 12 hours) were “Approximately 20%” and approximately 30%, respectively. Moreover, in series [1] (oral administration), the absolute bioavailability result is “approximately 50%”. Also, the “increase of peak concentration by food” value in series [1] (with food) is on record as “about 24%”.

Take `COc1c(O)cc2c(c1OC)-c1ccc(OC)c(=O)cc1[C@@H](NC(C)=O)CC2` [3-DMC, 3-O-demethylcolchciine]: the “detectable metabolite plasma concentration” value in series [2] (after colchicine 0.6 mg single and multiple doses, 13 subjects) is listed as “only one sample from 1 subject (of 13 subjects) had a detectable”. For the same compound, the “CYP2C9/19 protein levels (immunoblotting)” value in series [3] is on record as “decrease”.

As for `COc1cc2c(c(OC)c1OC)-c1ccc(OC)c(=O)cc1[C@@H](NC(C)=O)CC2` [Colchicine, (−)-N-[(7S,12aS)-1,2,3,10-tetramethoxy-9-oxo-5,6,7,9-tetrahydrobenzo[a]heptalen-7-yl]-acetamide], in series [4], the AUC0-inf was determined as 16 ng·h/mL, the AUC0-t is 12 ng·h/mL and the Vd/F was 432 L. Also, the “attainment of steady state (trough plasma concentrations)” value in series [2] (0.6 mg b.i.d., most subjects) is on record as “by approximately the eighth day of dosing”. For the same compound, in series [2] (after a single 0.6 mg dose), the “plasma concentrations 24 hours post-dose” value was “no longer quantifiable 24 hours post-dose in all but 1 subject; also recorded: not detectable by 24 hours post-dose”. Moreover, the elimination half-life result in series [2] (calculated following a single oral dose, stated not an accurate estimate) is given as “approximately 5 hours”. The concentration at 25 day in series [2] (human, in vivo, Day 25, read-out: mean Cmin concentration) was determined as 0.907 ng/mL. Further, the concentration at 25 day in series [2] (human, in vivo, po, mean, multiple (b.i.d.) oral doses 0.6 mg x 10 days, Day 25, healthy adults N=13, read-out: Cmin) came out at 0.907 ng/mL. Also, the concentration at 25 day in series [2] (human, in vivo, po, median, multiple (b.i.d.) oral doses 0.6 mg x 10 days, Day 25, healthy adults N=13, read-out: Cave) came to 1.19 ng/mL. Further, the concentration at 25 day in series [2] (human, in vivo, po, median, multiple (b.i.d.) oral doses 0.6 mg x 10 days, Day 25, healthy adults N=13, read-out: Cmin) is 0.903 ng/mL. Also, the Vd/F in series [2] (human, in vivo, mean (% CV), 0.6-mg single dose, Day 1, N=13) came to 540 L. Moreover, in series [2] (setting [8]), the AUC0-τ was determined as 29.05623 ng·h/mL, the Cave was determined as 1.21068 ng/mL and the Kel came out at 0.03 h⁻¹. In series [2] (setting [9]), the AUC0-inf amounted to 12.2819 ng·h/mL, the AUC0-t came to 10.50854 ng·h/mL, the peak concentration (Cmax) was 2.47077 ng/mL and the Kel is 0.1829 h⁻¹. In series [2] (setting [10]), this compound showed an AUC0-inf of 54.11343 ng·h/mL, an AUC0-τ of 28.45215 ng·h/mL, a Kel of 0.03 h⁻¹ and a T1/2 of 26.51 h. In series [2] (setting [11]), this compound returned an AUC0-t of 10.5609 ng·h/mL and a Kel of 0.1992 h⁻¹. The “secondary colchicine peak in individual subject data” value in series [2] (single dose or multiple dosing) is recorded as “no subject experienced a secondary colchicine peak”. Also, the “Cmin prior to morning dose higher than Cmin prior to evening dose” value in series [2] (steady state, Day 23 and Day 24) is reported as “approximately 12%”. Also, in series [5], the “frequency of gout flares” value is given as “decreased the frequency of gout flares”. Moreover, under setting [12], the “decrease in apparent clearance (CL/F) of colchicine” value came out at 75% and the “increase in plasma elimination half-life (t1/2) of colchicine” value is 233%. Moreover, under setting [13], the “increase in mean colchicine AUC0-t” value was 250% and the “increase in mean colchicine Cmax” value turned out to be 167%. Under setting [14], this compound had a CL/F of 46.8 L/h, a Cmax of 3 ng/mL, a Ke of 0.132 h⁻¹ and a t1/2 of 9 h. For the same compound, the half-life in series [6] is 26.6 to 31.2 h. Moreover, the “FMF patients that do not show a beneficial response” value in series [7] is reported as 5-10%. Further, the “CYP2C9/19 protein levels (immunoblotting)” value in series [3] is on record as “appeared to decrease”.

Consider `COc1cc2c(c(OC)c1O)-c1ccc(OC)c(=O)cc1[C@@H](NC(C)=O)CC2` [2-DMC, 2-O-demethylcolchicine], for which, in series [2] (after colchicine 0.6 mg single and multiple doses, LOQ 0.2 ng/mL), the metabolite plasma concentrations is listed as less than 0.2 ng/mL.
